Laboratory results: patent US5126356A, “Piperidine compounds” (Adir et Compagnie, priority 1989, dated 1992)
pIC50: −log10 of the molar value.

Columns and labels:
[1] = molecular target: T1, type L Ca^2+ channel (Rattus norvegicus, UniProt P22002); assay: Inhibition of 45Ca2+ influx through the Ca2+ channel in A7 r5 cells; type: cell-based
T1 construct: cell lines from the aorta of newly born rats; host or cells: A7 r5

[2] = system: beagle dogs; assay: Anti-ischaemic activity, Protocol 2: moderate coronary stenosis plus auricular pacing in anaesthetised beagle dogs; type: in vivo, dog; conditions: Pacing 2 minutes, 1 mg/kg i.v.
Description: The studies are carried out on beagle dogs weighing from 9 to 12 kg which have been anaesthetised with pentobarbital sodium 30 mg/kg i.v., intubated and ventilated, and subjected to a thoracotomy at the 5th left intercostal space.
An electromagnetic ring connected to a Gould SP 2202 electromagnetic flow meter is placed around the circumflex branch of the left coronary artery, and an inflatable balloon is placed just downstream of that ring for the production of coronary stenoses under the control of the coronary output.
Piezoelectric crystals (5 MHz) connected to a Triton sonomicrometer are implanted in the subendocardium of the left ventricular wall, in an area that is to become ischaemic, for measuring local myocardial contractility; epicardial electrodes are placed in the same area for recording the epicardial electrocardiogram.
Two electrodes are sewn at the right auricle in the region of the sinoauricular node for the protocols including pacing sequences. […]
Myocardial contractility is evaluated by the proportion of systolic shortening of the lengths of the segments between the piezoelectric crystals.
Hypokinesia in the ischaemic area is expressed as percentage variation relative to the contractility measured in the control period.
Modification of the epicardial ECG in the ischaemic area consists in raising the epicardial ST segment measured in millivolts (mV).

T1 sequence (P22002 whole entry): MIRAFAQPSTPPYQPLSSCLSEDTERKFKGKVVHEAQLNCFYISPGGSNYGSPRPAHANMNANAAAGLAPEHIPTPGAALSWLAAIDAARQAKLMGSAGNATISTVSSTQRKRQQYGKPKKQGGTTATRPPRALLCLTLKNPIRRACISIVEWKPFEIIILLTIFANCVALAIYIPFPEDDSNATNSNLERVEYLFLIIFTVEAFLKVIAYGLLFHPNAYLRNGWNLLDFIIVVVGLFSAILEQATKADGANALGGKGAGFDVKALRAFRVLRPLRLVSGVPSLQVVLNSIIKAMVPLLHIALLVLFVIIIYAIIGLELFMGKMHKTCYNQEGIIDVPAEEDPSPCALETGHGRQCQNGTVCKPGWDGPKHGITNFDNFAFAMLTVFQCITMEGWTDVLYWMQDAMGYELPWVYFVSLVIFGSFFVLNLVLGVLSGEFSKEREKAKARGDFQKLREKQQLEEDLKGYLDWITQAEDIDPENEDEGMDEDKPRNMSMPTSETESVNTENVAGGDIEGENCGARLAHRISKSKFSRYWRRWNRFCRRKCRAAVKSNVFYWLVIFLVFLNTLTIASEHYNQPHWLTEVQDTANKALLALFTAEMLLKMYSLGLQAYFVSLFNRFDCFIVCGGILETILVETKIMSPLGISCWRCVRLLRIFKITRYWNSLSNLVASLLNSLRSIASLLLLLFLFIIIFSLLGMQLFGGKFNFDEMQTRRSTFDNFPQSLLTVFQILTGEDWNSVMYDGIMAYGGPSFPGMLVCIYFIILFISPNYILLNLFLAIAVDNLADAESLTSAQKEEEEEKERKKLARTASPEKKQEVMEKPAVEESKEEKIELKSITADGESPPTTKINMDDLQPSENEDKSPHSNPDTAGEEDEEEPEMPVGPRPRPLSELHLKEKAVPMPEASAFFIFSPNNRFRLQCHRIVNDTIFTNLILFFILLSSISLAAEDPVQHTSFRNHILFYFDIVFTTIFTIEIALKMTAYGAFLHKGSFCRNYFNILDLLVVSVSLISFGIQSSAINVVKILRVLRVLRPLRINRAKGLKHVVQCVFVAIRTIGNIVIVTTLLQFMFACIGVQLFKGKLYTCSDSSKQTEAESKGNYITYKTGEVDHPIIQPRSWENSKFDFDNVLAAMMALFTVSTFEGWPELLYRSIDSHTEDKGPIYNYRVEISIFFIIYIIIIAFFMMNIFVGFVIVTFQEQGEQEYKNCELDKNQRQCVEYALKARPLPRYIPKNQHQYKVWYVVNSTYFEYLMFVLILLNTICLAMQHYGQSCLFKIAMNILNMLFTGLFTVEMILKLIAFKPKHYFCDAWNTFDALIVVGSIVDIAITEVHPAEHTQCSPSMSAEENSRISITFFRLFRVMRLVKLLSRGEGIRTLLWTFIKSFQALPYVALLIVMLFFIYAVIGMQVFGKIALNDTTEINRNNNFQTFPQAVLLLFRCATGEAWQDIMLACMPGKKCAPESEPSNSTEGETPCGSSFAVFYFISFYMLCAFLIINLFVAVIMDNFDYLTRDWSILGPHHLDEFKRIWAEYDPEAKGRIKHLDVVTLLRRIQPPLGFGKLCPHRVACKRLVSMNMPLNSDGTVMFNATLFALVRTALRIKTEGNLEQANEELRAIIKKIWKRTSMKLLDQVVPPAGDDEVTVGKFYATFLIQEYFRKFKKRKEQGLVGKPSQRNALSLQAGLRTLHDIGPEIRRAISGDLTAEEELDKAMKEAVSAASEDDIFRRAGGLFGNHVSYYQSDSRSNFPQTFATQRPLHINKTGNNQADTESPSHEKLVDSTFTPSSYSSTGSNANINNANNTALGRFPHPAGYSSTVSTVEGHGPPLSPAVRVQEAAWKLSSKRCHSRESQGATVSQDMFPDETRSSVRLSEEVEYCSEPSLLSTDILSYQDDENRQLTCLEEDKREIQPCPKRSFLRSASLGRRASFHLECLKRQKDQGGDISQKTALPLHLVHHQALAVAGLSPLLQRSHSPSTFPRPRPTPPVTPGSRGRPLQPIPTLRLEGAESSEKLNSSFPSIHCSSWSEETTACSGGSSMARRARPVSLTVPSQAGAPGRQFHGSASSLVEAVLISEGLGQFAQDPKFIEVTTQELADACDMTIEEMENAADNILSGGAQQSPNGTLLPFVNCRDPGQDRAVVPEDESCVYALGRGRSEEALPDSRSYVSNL
T1 sequence (P54290 25-945 partner limits assumed): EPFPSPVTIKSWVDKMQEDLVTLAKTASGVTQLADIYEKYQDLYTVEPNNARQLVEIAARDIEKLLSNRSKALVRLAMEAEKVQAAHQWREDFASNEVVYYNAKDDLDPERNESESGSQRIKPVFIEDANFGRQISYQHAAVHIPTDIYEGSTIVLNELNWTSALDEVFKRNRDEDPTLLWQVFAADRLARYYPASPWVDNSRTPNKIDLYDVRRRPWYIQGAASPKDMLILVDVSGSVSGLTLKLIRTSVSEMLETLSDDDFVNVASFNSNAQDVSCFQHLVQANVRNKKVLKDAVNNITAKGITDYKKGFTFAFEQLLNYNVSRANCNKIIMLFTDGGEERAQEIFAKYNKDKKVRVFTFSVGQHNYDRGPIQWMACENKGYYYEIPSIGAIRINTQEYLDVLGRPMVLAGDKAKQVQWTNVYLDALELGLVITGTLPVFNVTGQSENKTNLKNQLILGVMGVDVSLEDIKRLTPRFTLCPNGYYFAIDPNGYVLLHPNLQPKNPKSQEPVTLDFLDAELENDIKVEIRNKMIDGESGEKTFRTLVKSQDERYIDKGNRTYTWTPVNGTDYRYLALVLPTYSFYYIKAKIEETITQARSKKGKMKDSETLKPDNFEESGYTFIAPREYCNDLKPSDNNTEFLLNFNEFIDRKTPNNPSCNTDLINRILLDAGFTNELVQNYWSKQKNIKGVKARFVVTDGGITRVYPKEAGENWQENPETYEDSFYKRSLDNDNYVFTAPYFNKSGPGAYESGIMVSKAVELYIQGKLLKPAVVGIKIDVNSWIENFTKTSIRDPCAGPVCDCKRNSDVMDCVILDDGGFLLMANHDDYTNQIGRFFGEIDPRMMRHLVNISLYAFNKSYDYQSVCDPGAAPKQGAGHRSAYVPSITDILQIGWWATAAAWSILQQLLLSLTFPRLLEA
T1 sequence (P54290 946-1091 partner limits assumed): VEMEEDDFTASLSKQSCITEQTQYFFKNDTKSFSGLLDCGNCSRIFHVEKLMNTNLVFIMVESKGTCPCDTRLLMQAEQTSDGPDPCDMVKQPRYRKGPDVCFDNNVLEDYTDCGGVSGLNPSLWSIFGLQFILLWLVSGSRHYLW

In the case of `COc1ccc(CSC2CCN(CC=Cc3ccccc3)CC2)c(OC)c1OC` [Example 1, 4-(2,3,4-trimethoxybenzylthio)-1-cinnamylpiperidine], the “inhibition of Ca2+ influx (in words)” value [1] was “inhibition of the influx of Ca^2+”, the pIC50 ([1]; 45Ca2+ influx, A7 r5 cells, read-out: K0.5 (50% of 45Ca2+ influx inhibited)) was 5.52 and the “Epicardial ST delta mV” value ([2]; solvent +6.0) was “+0.5 mV”. For the same molecule, the Contractility delta % ([2]; solvent -62.6) was -42.2%.
